Measured values from patent publication US10670605B2, “Cysteine reactive probes and uses thereof” (The Scripps Research Institute, priority 2015, dated 2020).
“And” between values parts separate entries of the source, which are not always exact repeats. Identical values can stand only once.

Columns and labels:
Experiment in all cases: Competitive isoTOP-ABPP, cell lysates
Format in all cases: binding
USP16 C205 (Q9Y5T5) = USP16 C205 (Q9Y5T5) (Homo sapiens, UniProt Q9Y5T5)
NR3C1 C302 (P04150) = molecular target: T1, NR3C1 C302 (P04150) (Homo sapiens, UniProt P04150); conditions: 500 μm in-vitro ramos_231
T1 sequence (P04150 1-777): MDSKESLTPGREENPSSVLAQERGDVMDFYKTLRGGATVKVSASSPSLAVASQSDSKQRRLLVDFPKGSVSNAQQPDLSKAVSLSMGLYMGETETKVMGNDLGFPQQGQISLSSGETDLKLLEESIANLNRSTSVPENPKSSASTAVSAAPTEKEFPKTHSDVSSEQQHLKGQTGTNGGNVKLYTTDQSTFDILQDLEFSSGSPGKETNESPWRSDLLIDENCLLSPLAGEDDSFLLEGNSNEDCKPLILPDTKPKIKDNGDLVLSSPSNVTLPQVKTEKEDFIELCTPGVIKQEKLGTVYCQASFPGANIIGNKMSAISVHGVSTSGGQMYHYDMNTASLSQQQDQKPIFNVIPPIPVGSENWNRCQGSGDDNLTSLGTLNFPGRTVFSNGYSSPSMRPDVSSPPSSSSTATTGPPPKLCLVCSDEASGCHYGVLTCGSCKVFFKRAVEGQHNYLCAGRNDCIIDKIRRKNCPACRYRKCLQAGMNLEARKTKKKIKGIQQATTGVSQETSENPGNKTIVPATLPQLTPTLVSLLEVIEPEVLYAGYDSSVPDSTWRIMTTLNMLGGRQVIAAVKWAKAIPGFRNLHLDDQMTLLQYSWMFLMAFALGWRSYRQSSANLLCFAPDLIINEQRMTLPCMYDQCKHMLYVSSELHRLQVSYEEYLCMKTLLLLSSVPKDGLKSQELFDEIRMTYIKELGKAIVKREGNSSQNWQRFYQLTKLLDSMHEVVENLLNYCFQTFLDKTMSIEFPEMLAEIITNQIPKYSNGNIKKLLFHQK

USP48 C39 (Q86UV5) = molecular target: T2, USP48 C39 (Q86UV5) (Homo sapiens, UniProt Q86UV5); conditions: 500 μm in-vitro ramos_231
T2 sequence (Q86UV5 1-1035): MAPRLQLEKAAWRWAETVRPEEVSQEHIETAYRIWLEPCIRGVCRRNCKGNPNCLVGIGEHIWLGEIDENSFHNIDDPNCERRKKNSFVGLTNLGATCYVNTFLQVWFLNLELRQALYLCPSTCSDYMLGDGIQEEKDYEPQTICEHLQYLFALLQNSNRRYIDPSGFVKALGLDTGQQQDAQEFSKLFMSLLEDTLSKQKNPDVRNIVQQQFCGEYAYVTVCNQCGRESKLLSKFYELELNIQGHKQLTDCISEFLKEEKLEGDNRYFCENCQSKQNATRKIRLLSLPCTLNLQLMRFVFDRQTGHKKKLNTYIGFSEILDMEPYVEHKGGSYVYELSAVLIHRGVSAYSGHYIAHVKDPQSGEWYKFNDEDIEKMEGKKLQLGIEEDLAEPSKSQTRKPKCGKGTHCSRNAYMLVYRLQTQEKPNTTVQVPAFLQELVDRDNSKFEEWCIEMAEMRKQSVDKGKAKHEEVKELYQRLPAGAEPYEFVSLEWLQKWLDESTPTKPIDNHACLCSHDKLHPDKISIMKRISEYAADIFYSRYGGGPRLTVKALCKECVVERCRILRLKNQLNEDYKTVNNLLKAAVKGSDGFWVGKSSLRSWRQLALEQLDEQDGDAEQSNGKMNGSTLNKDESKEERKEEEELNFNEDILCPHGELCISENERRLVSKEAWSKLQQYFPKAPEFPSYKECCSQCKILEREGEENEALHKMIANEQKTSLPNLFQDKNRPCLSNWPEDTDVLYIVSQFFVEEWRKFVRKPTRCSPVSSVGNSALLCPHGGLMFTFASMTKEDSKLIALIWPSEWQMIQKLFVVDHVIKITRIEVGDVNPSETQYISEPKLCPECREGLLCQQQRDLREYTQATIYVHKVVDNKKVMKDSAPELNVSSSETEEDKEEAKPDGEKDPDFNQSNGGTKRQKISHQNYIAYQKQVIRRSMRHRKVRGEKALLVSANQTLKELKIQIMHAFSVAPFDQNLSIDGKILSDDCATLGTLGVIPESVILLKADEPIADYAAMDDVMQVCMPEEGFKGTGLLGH

CDK5 C157 (Q00535) = CDK5 C157 (Q00535) (Homo sapiens, UniProt Q00535); conditions: 500 μm in-vitro ramos
Chain of CDK5 C157 (Q00535) (Q00535 whole entry): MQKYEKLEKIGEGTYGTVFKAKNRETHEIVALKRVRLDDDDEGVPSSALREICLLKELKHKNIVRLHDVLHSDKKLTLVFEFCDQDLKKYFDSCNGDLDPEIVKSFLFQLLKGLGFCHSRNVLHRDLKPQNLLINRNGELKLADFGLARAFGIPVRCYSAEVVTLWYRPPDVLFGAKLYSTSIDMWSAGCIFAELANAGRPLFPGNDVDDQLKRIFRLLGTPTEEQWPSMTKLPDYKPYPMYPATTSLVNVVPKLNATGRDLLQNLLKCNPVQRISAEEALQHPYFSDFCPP

Chain of USP16 C205 (Q9Y5T5) (Q9Y5T5 whole entry): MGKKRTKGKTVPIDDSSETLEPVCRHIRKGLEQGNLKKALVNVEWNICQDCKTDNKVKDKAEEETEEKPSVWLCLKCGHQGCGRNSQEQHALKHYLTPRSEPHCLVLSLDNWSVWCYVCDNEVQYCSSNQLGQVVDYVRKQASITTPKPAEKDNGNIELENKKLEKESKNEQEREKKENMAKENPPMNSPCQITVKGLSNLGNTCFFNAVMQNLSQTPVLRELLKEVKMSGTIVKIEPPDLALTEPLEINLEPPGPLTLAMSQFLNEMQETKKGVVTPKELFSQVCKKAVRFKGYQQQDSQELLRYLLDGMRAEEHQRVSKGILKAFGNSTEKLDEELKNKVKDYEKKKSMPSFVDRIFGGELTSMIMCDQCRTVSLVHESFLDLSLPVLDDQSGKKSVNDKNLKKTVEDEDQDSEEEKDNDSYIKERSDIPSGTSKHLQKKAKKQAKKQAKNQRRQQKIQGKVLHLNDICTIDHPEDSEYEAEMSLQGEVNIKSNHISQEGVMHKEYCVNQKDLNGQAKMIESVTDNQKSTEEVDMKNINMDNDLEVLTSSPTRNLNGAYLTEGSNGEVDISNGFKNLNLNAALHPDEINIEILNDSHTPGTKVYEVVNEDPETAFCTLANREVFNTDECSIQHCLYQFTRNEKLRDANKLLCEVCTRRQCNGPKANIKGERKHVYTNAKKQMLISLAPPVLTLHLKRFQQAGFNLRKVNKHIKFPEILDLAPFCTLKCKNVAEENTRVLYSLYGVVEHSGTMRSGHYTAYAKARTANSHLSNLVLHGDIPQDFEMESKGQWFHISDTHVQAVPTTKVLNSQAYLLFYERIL

`CC(C)CCOCCNC(=O)CCl` [compound 27] was tested, and the “isoTOP-ABPP ratio (reactivity profile), Q9Y5T5_C205” value (USP16 C205 (Q9Y5T5); 500 μm in-vitro ramos) was 0.9, the “isoTOP-ABPP ratio (reactivity profile), Q9Y5T5_C205” value (USP16 C205 (Q9Y5T5); 500 μm in-vitro ramos_231) was 1.6 and the “isoTOP-ABPP ratio (reactivity profile), P04150_C302” value (NR3C1 C302 (P04150)) was 1.3 and 1.0. For the same molecule, the “isoTOP-ABPP ratio (reactivity profile), Q86UV5_C39” value (USP48 C39 (Q86UV5)) was 0.8 and the “isoTOP-ABPP ratio (reactivity profile), Q00535_C157” value (CDK5 C157 (Q00535)) was 1.0.
